Experiments:
[1] = additional release experiments with dexamethasone salts in different bioactive releasing membrane combinations; type: physicochemical; details: in a water-soluble cellulosic based polymer
Procedure: Additional experiments were carried out using dexamethasone salts in different bioactive releasing membrane combinations.

[2] = in vitro bioactive release profile of dexamethasone acetate from bioactive releasing membrane 70 (percent cumulative release by HPLC); type: physicochemical; details: over a time span of 16-35 days
Procedure: With reference to FIG. 5A, an exemplary in vitro bioactive release profiles for dexamethasone acetate is shown using exemplary bioactive releasing membrane 70. The percent cumulative release of dexamethasone acetate can be determined using HPLC, for example using a Phenomenex Kinetex 5μ EVO C18 100 Å, 50×3.0 mm column held at 25° C. with a 254 nm UV detector and an elution gradient of A: Water with 0.1% formic acid/B: Acetonitrile with 0.1% formic acid (vol/vol), where the gradient from time 0 to 2 minutes is 90% A/10% B; from 2-5 minutes is 10% A/90% B; and from 5 minutes is 90% A/10% B. Dexamethasone acetate and dexamethasone HPLC standards are prepared at concentrations of about 0.1-20 ug/mL.
With reference to FIG. 5B, experimental data of a release rate of a bioactive agent (dexamethasone acetate) from a bioactive releasing membrane 70 initially or during the first time period being greater than the release rate of the bioactive agent from the bioactive releasing membrane initially or during the second time period and the release rate of the bioactive agent from the bioactive releasing membrane initially or during the second time period is greater than the release rate of the bioactive agent from the bioactive releasing membrane initially or during the third time period is shown. […]

Which release profile [1] does the source give for `C[C@@H]1C[C@H]2[C@@H]3CCC4=CC(=O)C=C[C@]4(C)[C@@]3(F)[C@@H](O)C[C@]2(C)[C@@]1(O)C(=O)COP(=O)(O)O` [dexamethasone sodium phosphate] here?
The release profile was “bolus release profile”.

With `CC(=O)OCC(=O)[C@@]1(O)[C@H](C)C[C@H]2[C@@H]3CCC4=CC(=O)C=C[C@]4(C)[C@@]3(F)[C@@H](O)C[C@@]21C` [dexamethasone acetate] as the compound, how does the “third release rate: release of the remaining amount” value [2] read?
Its value is “approximately 10%”.

Source: patent publication US20230073214A1, “BIOACTIVE RELEASING MEMBRANE FOR ANALYTE SENSOR” (DexCom, Inc., priority 2021, published 2023)
